Common to all, as to assay type: cell-based
The subject of test [1] is A2780. In words: Binding affinity to alpha tubulin in human A2780 cells assessed as disruption of tubulin polymerization by measuring reduction in cell proliferation after 48 hrs by CellTiter non-radioactive assay.
Test [2] deals with A2780. In words: Binding affinity to alpha tubulin in human A2780 cells assessed as disruption of tubulin polymerization by measuring cell proliferation at higher concentration after 48 hrs by CellTiter non-radioactive assay relative to control.
The species entered for the next test is Homo sapiens. In words: Binding affinity to alpha tubulin in human OVCAR5 cells assessed as disruption of tubulin polymerization by measuring reduction in cell proliferation after 48 hrs by CellTiter non-radioactive assay.

Consider `C/C=C/C[C@H](C)[C@@H](OC)[C@@H](C)[C@H](O)C[C@H]1OC(=O)C(C)=C[C@H]1CC`, for which the GI50 in the test on A2780 [1] stood at 10200 nM; in the test listed under Homo sapiens, 3360 nM. In addition, the Activity with A2780 [2] lay within 10 to 20%.
In the same order, the values of `C/C=C/C[C@H](C)[C@@H](OC)[C@@H](C)[C@H](O)C[C@H]1OC(=O)C(F)=C[C@H]1CC` are 5110 nM, 3240 nM and 10 to 20%.
In the same order, the values of `C/C=C/C[C@H](C)[C@@H](OC)[C@@H](C)[C@H](O)C[C@H]1OC(=O)C(Cl)=C[C@H]1CC` are 4480 nM, 1080 nM and 10 to 20%.
In the same order, the values of `CC(=O)O[C@H]1C(=O)[C@@]2(C)[C@H]([C@H](OC(=O)c3ccccc3)[C@]3(O)C[C@H](OC(=O)[C@H](O)[C@@H](NC(=O)c4ccccc4)c4ccccc4)C(C)=C1C3(C)C)[C@]1(OC(C)=O)CO[C@@H]1C[C@@H]2O` are 7.53 nM, 21 nM and 10 to 20%.
Take `C/C=C/C[C@H](C)[C@@H](OC)[C@@H](C)[C@H](O)C[C@H]1OC(=O)C(Br)=C[C@H]1CC`: the GI50 was 901 nM with A2780 [1] and 44.9 to 26200 nM in the test listed under Homo sapiens. For the same compound, the Activity in the test on A2780 [2] is less than 10%.
As to `C/C=C/C[C@H](C)[C@@H](OC)[C@@H](C)[C@H](O)C[C@H]1OC(=O)C=C[C@H]1CC`, the concentration for 50% growth inhibition (GI50) in the test on A2780 [1] is 24.3 nM; in the test filed under Homo sapiens, 14.4 nM. In addition, the Activity with A2780 [2] lay within 10 to 20%.
In the same order, the values of `C/C=C/C[C@H](C)[C@@H](OC)[C@@H](C)[C@H](O)C[C@H]1OC(=O)C(c2ccccc2)=C[C@H]1CC` are more than 50000 nM, more than 50000 nM and 10 to 20%.

Values taken from ChEMBL document CHEMBL4229330, “Synthesis and evaluation of C2 functionalized analogs of the α-tubulin-binding natural product pironetin” (Bioorg Med Chem Lett, 2018).
